From ChEMBL document CHEMBL3352461, “Discovery and optimization of 5-fluoro-4,6-dialkoxypyrimidine GPR119 agonists” (Bioorg Med Chem Lett, 2014)

Key:
[1] = target: T1, Glucose-dependent insulinotropic receptor (Rattus norvegicus, UniProt Q7TQN8); assay: […] of rat GPR119 activity by homogeneous time resolved fluorescence cyclase (cAMP) assay; type: functional
T1 sequence (Q7TQN8 whole entry): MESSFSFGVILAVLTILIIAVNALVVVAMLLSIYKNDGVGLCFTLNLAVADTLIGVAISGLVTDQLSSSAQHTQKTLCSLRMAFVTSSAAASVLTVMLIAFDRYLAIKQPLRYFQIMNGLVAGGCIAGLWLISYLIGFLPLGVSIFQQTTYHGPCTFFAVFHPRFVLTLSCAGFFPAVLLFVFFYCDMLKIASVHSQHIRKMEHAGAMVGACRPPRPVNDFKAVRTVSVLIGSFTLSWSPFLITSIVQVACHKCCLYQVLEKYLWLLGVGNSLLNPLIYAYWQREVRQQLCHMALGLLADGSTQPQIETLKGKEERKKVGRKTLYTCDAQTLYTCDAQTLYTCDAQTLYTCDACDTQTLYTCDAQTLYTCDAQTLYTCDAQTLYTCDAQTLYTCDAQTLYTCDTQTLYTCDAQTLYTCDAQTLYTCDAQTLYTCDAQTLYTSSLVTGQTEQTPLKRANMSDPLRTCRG

[2] = target: T2, Glucose-dependent insulinotropic receptor (Homo sapiens) (UniProt Q8TDV5); assay: […] of human GPR119 activity by homogeneous time resolved fluorescence cyclase (cAMP) assay relative to AR231453; type: functional
T2 sequence (whole entry): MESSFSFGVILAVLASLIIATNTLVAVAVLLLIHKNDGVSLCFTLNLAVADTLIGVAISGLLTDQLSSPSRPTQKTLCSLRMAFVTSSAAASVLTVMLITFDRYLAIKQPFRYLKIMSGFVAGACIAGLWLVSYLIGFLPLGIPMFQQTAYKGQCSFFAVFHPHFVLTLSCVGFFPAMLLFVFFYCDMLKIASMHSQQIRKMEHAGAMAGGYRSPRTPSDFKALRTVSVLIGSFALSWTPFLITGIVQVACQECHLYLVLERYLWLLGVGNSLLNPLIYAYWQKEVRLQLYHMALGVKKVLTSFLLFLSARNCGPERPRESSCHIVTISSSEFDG

[3] = target: T3, Glucose-dependent insulinotropic receptor (Homo sapiens, UniProt Q8TDV5); assay: […] of human GPR119 activity by homogeneous time resolved fluorescence cyclase (cAMP) assay; type: functional
T3 sequence (Q8TDV5 whole entry): T2 sequence (whole entry)

[4] = target: T4, Glucose-dependent insulinotropic receptor (Rattus norvegicus) (UniProt Q7TQN8); assay: […] of rat GPR119 activity by homogeneous time resolved fluorescence cyclase (cAMP) assay relative to AR231453; type: functional
T4 sequence (whole entry): T1 sequence (Q7TQN8 whole entry)

Cytochrome P450 2C9 = Cytochrome P450 2C9 (Homo sapiens, UniProt P11712); assay: Inhibition of CYP2C9 (unknown origin); type: ADME
Sequence of Cytochrome P450 2C9 (P11712 whole entry): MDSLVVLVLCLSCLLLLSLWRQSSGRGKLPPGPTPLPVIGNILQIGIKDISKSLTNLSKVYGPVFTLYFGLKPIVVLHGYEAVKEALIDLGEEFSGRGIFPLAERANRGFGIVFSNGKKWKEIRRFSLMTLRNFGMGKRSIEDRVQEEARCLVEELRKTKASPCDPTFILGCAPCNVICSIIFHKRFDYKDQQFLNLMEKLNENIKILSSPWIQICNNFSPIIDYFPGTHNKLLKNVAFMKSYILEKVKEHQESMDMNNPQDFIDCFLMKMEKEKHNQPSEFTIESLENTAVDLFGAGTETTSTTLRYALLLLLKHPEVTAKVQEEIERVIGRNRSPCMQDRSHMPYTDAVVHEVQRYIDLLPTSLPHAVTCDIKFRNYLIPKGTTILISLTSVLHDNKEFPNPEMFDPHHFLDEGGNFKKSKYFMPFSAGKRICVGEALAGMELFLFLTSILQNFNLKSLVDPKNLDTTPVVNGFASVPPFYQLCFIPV

SMILES | EC50 [1] [nM] | Efficacy [2] [%] | EC50 [3] [nM] | Efficacy [4] [%] | IC50 (Cytochrome P450 2C9) [nM]
Cc1nc(S(C)(=O)=O)ccc1Oc1ncnc(OC2CCN(C(=S)OC(C)C)CC2)c1F | 1050 | -32 | 69.9 | 47 | –
Cc1nc(S(C)(=O)=O)ccc1Oc1ncnc(OC2CCN(C(=O)SC3CCC3)CC2)c1F | 77.4 | 94 | 8.51 | 81 | –
Cc1nc(S(C)(=O)=O)ccc1Oc1ncnc(OC2CCN(C(=O)OC(C)(C)C(F)(F)F)CC2)c1F | 47.2 | 36 | 6.53 | 79 | –
Cc1nc(S(C)(=O)=O)ccc1Oc1ncnc(OC2CCN(C(=O)OC(C)(C)C#N)CC2)c1F | 1320 | 90 | 92.9 | 97 | –
Cc1nc(S(C)(=O)=O)ccc1Nc1ncnc(OC2CCN(C(=O)OC(C)C)CC2)c1F | 265 | 77 | 132 | 85 | 5500
Cc1nc(S(C)(=O)=O)ccc1Oc1ncnc(OC2CCN(C(=O)SC3CC3)CC2)c1F | 126 | 103 | 24.9 | 80 | –
Cc1nc(S(C)(=O)=O)ccc1Oc1ncnc(OC2CCN(C(=O)C(F)(F)F)CC2)c1F | 880 | 52 | 151 | 76 | –
CCC1(OC(=O)N2CCC(Oc3ncnc(Oc4ccc(S(C)(=O)=O)nc4C)c3F)CC2)CC1 | 333 | 65 | 22 | 83 | –
Cc1nc(S(C)(=O)=O)ccc1Oc1ncnc(OC2CCN(C(=O)SC3(C)CC3)CC2)c1F | 166 | 93 | 13.2 | 77 | –
Cc1nc(S(C)(=O)=O)ccc1Oc1ncnc(OC2CCN(C(=O)O[C@H](C)C(F)(F)F)CC2)c1F | 110 | 56 | 9.2 | 85 | –
Cc1nc(S(C)(=O)=O)ccc1Oc1ncnc(OC2CCN(C(=O)c3nc(C(C)(C)F)no3)CC2)c1F | 606 | 74 | 43.4 | 84 | –
COc1c(Nc2ccc(S(C)(=O)=O)nc2C)ncnc1OC1CCN(C(=O)OC(C)C)CC1 [ADP-597] | – | 75 | – | 89 | 5800
Cc1nc(S(C)(=O)=O)ccc1Oc1ncnc(OC2CCN(C(=O)C(C)(C)F)CC2)c1F | 296 | 66 | 76.3 | 74 | –
Cc1nc(S(C)(=O)=O)ccc1Oc1ncnc(OC2CCN(C(=S)OC3(C)CC3)CC2)c1F | 48.8 | – | – | 49 | –
Cc1nc(S(C)(=O)=O)ccc1Oc1ncnc(OC2CCN(C(=O)C3(C)CC3)CC2)c1F | – | 72 | 761 | – | –
Cc1nc(S(C)(=O)=O)ccc1Oc1ncnc(OC2CCN(C(=O)OC3(C(F)(F)F)COC3)CC2)c1F | 342 | 66 | 29.3 | 84 | –
Cc1nc(S(C)(=O)=O)ccc1Oc1ncnc(OC2CCN(C(=O)SC(C)(C)C)CC2)c1F | 30.7 | 87 | 4.83 | 76 | –
Cc1nc(S(C)(=O)=O)ccc1Oc1ncnc(OC2CCN(C(=O)C(C)(F)F)CC2)c1F | 239 | 76 | 37 | 87 | –

SMILES | EC50 [1] [nM] | Efficacy [2] [%] | EC50 [3] [nM] | Efficacy [4] [%] | IC50 (Cytochrome P450 2C9) [nM]
Cc1nc(S(C)(=O)=O)ccc1Oc1ncnc(OC2CCN(C(=O)c3noc(C(C)(C)F)n3)CC2)c1F | 103 | 69 | 14 | 74 | –
Cc1nc(S(C)(=O)=O)ccc1Oc1ncnc(OC2CCN(C(=O)OC(C)C)CC2)c1F | 142 | 75 | 21 | 77 | > 50000
Cc1nc(S(C)(=O)=O)ccc1Oc1ncnc(OC2CCN(C(=O)C3CCCC3)CC2)c1F | 407 | 87 | 72.8 | 83 | –
Cc1nc(S(C)(=O)=O)ccc1Oc1ncnc(OC2CCN(C(=O)OC(C)(C)C)CC2)c1F | 49.6 | 81 | 7.91 | 97 | –
Cc1nc(S(C)(=O)=O)ccc1Oc1ncnc(OC2CCN(C(=O)SC(C)C)CC2)c1F | 41.3 | 95 | 6.8 | 81 | –
Cc1nc(S(C)(=O)=O)ccc1Oc1ncnc(OC2CCN(C(=O)c3ncc(Cl)cn3)CC2)c1F | 30.9 | 83 | 6.12 | 77 | –
Cc1nc(S(C)(=O)=O)ccc1Oc1ncnc(OC2CCN(C(=O)c3noc(C(C)C)n3)CC2)c1F | 176 | 72 | 21.2 | 81 | –
Cc1nc(S(C)(=O)=O)ccc1Oc1ncnc(OC2CCN(C(=O)OC3COC3)CC2)c1F | 2500 | 58 | 326 | 66 | –
CCc1cnc(C(=O)N2CCC(Oc3ncnc(Oc4ccc(S(C)(=O)=O)nc4C)c3F)CC2)nc1 | 40.8 | 99 | 4.7 | 80 | –
Cc1nc(S(C)(=O)=O)ccc1Oc1ncnc(OC2CCN(C(=O)O[C@@H](C)C(F)(F)F)CC2)c1F | 109 | 78 | 9.86 | 80 | –
CCC(F)(F)C(=O)N1CCC(Oc2ncnc(Oc3ccc(S(C)(=O)=O)nc3C)c2F)CC1 | 69.2 | 85 | 17.4 | 90 | –
Cc1nc(S(C)(=O)=O)ccc1Oc1ncnc(OC2CCN(C(=O)C3(F)CCC3)CC2)c1F | 123 | 99 | 24.7 | 91 | –
Cc1nc(S(C)(=O)=O)ccc1Oc1ncnc(OC2CCN(C(=O)O[C@H](C)CF)CC2)c1F | 1520 | 59 | 196 | 79 | –
Cc1nc(S(C)(=O)=O)ccc1Oc1ncnc(OC2CCN(C(=O)OC3(C(F)(F)F)CCC3)CC2)c1F | 63.3 | 38 | 14.3 | 82 | –
Cc1nc(S(C)(=O)=O)ccc1Oc1ncnc(OC2CCN(C(=O)OC3CCC3)CC2)c1F | 167 | 65 | 13.6 | 81 | –
Cc1nc(S(C)(=O)=O)ccc1Oc1ncnc(OC2CCN(C(=O)OC(C)(C)CF)CC2)c1F | 138 | 74 | 19.9 | 95 | –
Cc1nc(S(C)(=O)=O)ccc1Oc1ncnc(OC2CCN(C(=O)O[C@@H](C)CF)CC2)c1F | 1680 | 72 | 186 | 84 | –
